Key:
[1] = target: T1, LTAaj (L-threonine aldolase from Aeromonas jandaei; L-allo-threonine aldolase) (Aeromonas jandaei, UniProt O07051); experiment: UV-vis spectroscopy of internal aldimine ([…]-420 nm); assay type: binding; details: 50 mM sodium phosphate pH 8.0, 22 °C; covalent Schiff base with K199
T1 construct: gene ltaA; C-terminal His-tag, expressed in E. coli BL21(DE3), Ni-NTA purified, homotetramer, PLP-dependent
T1 sequence (O07051 1-338): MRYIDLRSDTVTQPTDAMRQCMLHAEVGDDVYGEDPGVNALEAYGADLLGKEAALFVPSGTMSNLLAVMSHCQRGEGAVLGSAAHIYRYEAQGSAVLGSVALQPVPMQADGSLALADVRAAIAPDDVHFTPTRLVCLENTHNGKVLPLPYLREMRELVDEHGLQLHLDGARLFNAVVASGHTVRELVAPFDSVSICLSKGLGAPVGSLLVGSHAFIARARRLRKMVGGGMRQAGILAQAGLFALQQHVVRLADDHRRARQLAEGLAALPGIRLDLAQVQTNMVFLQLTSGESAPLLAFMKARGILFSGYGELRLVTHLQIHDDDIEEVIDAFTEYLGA

[2] = target: T1, LTAaj (L-threonine aldolase from Aeromonas jandaei; L-allo-threonine aldolase); experiment: UV-vis spectroscopy of external aldimine ([…] nm) and quinonoid ([…] nm); assay type: binding; details: 50 mM sodium phosphate pH 8.0, 22 °C, 0.1 M glycine; PLP enzyme; covalent

Row | Compound | UV-vis spectroscopy of internal aldimine (410-420 nm) [1] | UV-vis spectroscopy of external aldimine (420 nm) and quinonoid (495 nm) [2]
1 | Cc1ncc(COP(=O)(O)O)c(C=O)c1O [PLP] | Formation of the (A) internal aldimine | 
2 | NCC(=O)O [glycine] |  | external aldimine with the glycine substrate in the wild type LTAaj and its mutants

From publication PMC5986058 (FEBS Open Bio, 2018)
